Assay results as given in US20160271097A1, “FORMULATION OF OLOPATADINE” (NEPHRON PHARMACEUTICALS CORPORATION, priority 2013, published 2016).

Assay: Dissolution of olopatadine in the formulation (minimum PVA)
Format: physicochemical
Conditions: Olopatadine about 2.0 mg/mL
Experimental: Initial experiments were conducted to examine the possible concentration ranges for the organic modifiers which would initially solubilize Olopatadine during formulation and maintain the solution stability such that no crystallization of the drug product would occur. An experiment was carried out to determine the minimum amount of PVA needed to obtain the total dissolution of Olopatadine in the formulation. The minimum amount of PVA determined to be effective in solubilizing the drug substance during formulation and which prevented crystal growth in the drug product was 0.5%. Concentrations of such PVA below 0.5% are insufficient to permit dissolution of Olopatadine concentrations of about 2.0 mg/mL. Concentrations at or […] were susceptible to the drug substance starting to dissolve but then precipitating back out of solution during formulation.

Minimum amount of PVA effective in solubilizing the drug substance and preventing crystal growth: 0.5%
SMILES: CN(C)CC/C=C1/c2ccccc2COc2ccc(CC(=O)O)cc21 [Olopatadine, {(11Z)-11-[3-(dimethylamino)propylidene]-6,11-dihydrodibenzo[b,e]oxepin-2-yl} acetic acid]
